In EP3325465B1, “PESTICIDALLY ACTIVE PYRAZOLE DERIVATIVES” (Syngenta Participations AG, priority 2015, dated 2017):

Columns and labels:
Assay type in all cases: in vivo
[1] = test system: Euschistus heros (Neotropical Brown Stink Bug); assay: Euschistus heros soybean plant spray test, N2 nymphs; details: 120 h, application rate of 12.5 ppm, 5 days after infestation, N2 nymphs, read-out: mortality of Euschistus heros
From the text: (§1) The pesticidal/insecticidal properties of the compounds according to embodiments 1 or 2 can be illustrated via the following tests: Spodoptera littoralis (Egyptian cotton leaf worm) • Cotton leaf discs were placed onto agar in 24-well microtiter plates and sprayed with aqueous test solutions prepared from 10'000 ppm DMSO stock solutions. After drying the leaf discs were infested with five L1 larvae. […] Plutella xylostella (Diamond back moth): 24-well microtiter plates with artificial diet were treated with aqueous test solutions prepared from 10'000 ppm DMSO stock solutions by pipetting. After drying, the plates were infested with L2 larvae (10 to 15 per well). The samples were assessed for mortality and growth inhibition in comparison to untreated samples 5 days after infestation. […] Diabrotica balteata, (Corn root worm) • Maize sprouts placed onto an agar layer in 24-well microtiter plates were treated with aqueous test solutions prepared from 10'000 ppm DMSO stock solutions by spraying. After drying, the plates were infested with L2 larvae (6 to 10 per well). […] Thrips tabaci (Onion thrips): Sunflower leaf discs were placed on agar in 24-well microtiter plates and sprayed with aqueous test solutions prepared from 10'000 ppm DMSO stock solutions. After drying the leaf discs were infested with a thrips population of mixed ages. The samples were assessed for mortality 6 days after infestation. […] Tetranychus urticae (Two-spotted spider mite): Bean leaf discs on agar in 24-well microtiter plates were sprayed with aqueous test solutions prepared from 10'000 ppm DMSO stock solutions. After drying the leaf discs were infested with a mite population of mixed ages. The samples were assessed for mortality on mixed population (mobile stages) 8 days after infestation. […] Euschistus heros (Neotropical Brown Stink Bug): • Two weeks old soybean plants were sprayed in a turn table spray chamber with the diluted spray solutions. After drying 2 soybean seeds were added and plants were infested with 10 N2 nymphs of the neotropical brown stink bug Euschistus heros in plastic test boxes. The samples were assessed for mortality in comparison to untreated samples 5 days after infestation. • The following compounds gave at least 80% mortality of Euschistus heros at an application rate of 12.5 ppm: Compounds 3 , 4 , 8 , 39 , 43 , 44 , 46 , 75 , 76 , 77 , 78 , 79 , 80 , 81 , 82 , 88 , 90 , 93 and 95 . Myzus persicae (Green peach aphid): Sunflower leaf discs were placed on agar in a 24-well microtiter plate and sprayed with test solutions at an application rate of 200 ppm. After drying, the leaf discs were infested with an aphid population of mixed ages. After an incubation period of 6 DAT, samples were checked for mortality. The following compounds gave at least 50% mortality of Myzus persicae: Compounds 3 , 4 , 8 , 43 , 44 , 75 , 76 , 77 , 80 , 81 , 90 and 92 . Myzus persicae (Green peach aphid): • Test compounds were applied by pipette into 24 well plates and mixed with Sucrose solution. Application rate: 12.5ppm. The plates were closed with a stretched parafilm. A plastic stencil with 24 holes is placed onto the plate and infested pea seedlings were placed directly on the Parafilm. The infested plate is closed with a gel blotting paper and another plastic stencil and then turned upside down. […]

[2] = test system: Thrips tabaci (Onion thrips); assay: Thrips tabaci sunflower leaf disc spray test; details: foliar, 144 h, application rate of 200 ppm, mortality 6 days after infestation, mixed ages
From the text: as §1

[3] = test system: Spodoptera littoralis (Egyptian cotton leaf worm); assay: Spodoptera littoralis cotton leaf disc spray test, L1 larvae; details: foliar, 72 h, application rate of 200 ppm, 3 days after infestation, L1 larvae, read-out: mortality
From the text: as §1

[4] = test system: Diabrotica balteata, (Corn root worm); assay: Diabrotica balteata maize sprout spray test, L2 larvae; details: 96 h, application rate of 200 ppm, 4 days after infestation, L2 larvae, read-out: mortality
From the text: as §1

[5] = test system: Plutella xylostella (Diamond back moth); assay: Plutella xylostella artificial diet test, L2 larvae; details: 120 h, application rate of 200 ppm, mortality and growth inhibition 5 days after infestation
From the text: as §1

[6] = test system: Tetranychus urticae (Two-spotted spider mite); assay: Tetranychus urticae bean leaf disc spray test; details: foliar, 192 h, application rate of 200 ppm, mortality on mixed population (mobile stages) 8 days after infestation
From the text: as §1

[7] = test system: Myzus persicae (Green peach aphid); assay: Myzus persicae sucrose solution / Parafilm feeding test; details: 120 h, Application rate: 12.5ppm, sucrose solution, 5 days after infestation, read-out: mortality of Myzus persicae
From the text: as §1

C=C(Cl)CNC(=O)c1cc(-c2cc(-c3c(C(F)(F)F)c(C(F)(F)C(F)(F)F)nn3C)no2)ccc1Cl [Compound 82, 2-chloro-N-(2-chloroallyl)-5-[3-[2-methyl-5-(1,1,2,2,2-pentafluoroethyl)-4-(trifluoromethyl)pyrazol-3-yl]isoxazol-5-yl]benzamide]
≥ 80%: mortality at 12.5 ppm [1] | pest or weed control at 200 ppm [2] | mortality at 200 ppm [3] | mortality at 200 ppm [4] | pest or weed control at 200 ppm [5]

Cn1nc(C(F)(F)C(F)(F)F)c(C(F)(F)F)c1-c1cc(-c2ccc(Cl)c(C(=O)NC3CCOC3=O)c2)on1 (stereo not shown) [Compound 78, 2-chloro-5-[3-[2-methyl-5-(1,1,2,2,2-pentafluoroethyl)-4-(trifluoromethyl)pyrazol-3-yl]isoxazol-5-yl]-N-(2-oxotetrahydrofuran-3-yl)benzamide]
≥ 80%: mortality at 12.5 ppm [1] | pest or weed control at 200 ppm [2] | mortality at 200 ppm [3] | mortality at 200 ppm [4] | pest or weed control at 200 ppm [6]

Cn1nc(C(F)(F)C(F)(F)F)c(C(F)(F)F)c1-c1cc(-c2ccc(Cl)c(C(=O)NC3(C(F)(F)F)CC3)c2)on1 [Compound 88, 2-chloro-5-[3-[2-methyl-5-(1,1,2,2,2-pentafluoroethyl)-4-(trifluoromethyl)pyrazol-3-yl]isoxazol-5-yl]-N-[1-(trifluoromethyl)cyclopropyl]benzamide]
≥ 80%: mortality at 12.5 ppm [1] | pest or weed control at 200 ppm [2] | mortality at 200 ppm [3] | mortality at 200 ppm [4] | pest or weed control at 200 ppm [5]

Cn1nc(C(F)(F)C(F)(F)F)c(C(F)(F)F)c1-c1cc(-c2ccc(Cl)c(C(=O)NC3(C#N)CC3)c2)[nH]n1 [Compound 72, 2-chloro-N-(1-cyanocyclopropyl)-5-[3-[2-methyl-5-(1,1,2,2,2-pentafluoroethyl)-4-(trifluoromethyl)pyrazol-3-yl]-1H-pyrazol-5-yl]benzamide]
≥ 80%: mortality at 200 ppm [3] | mortality at 200 ppm [4] | pest or weed control at 200 ppm [5] | mortality at 12.5 ppm [7]

C=C(F)CNC(=O)c1cc(-c2cc(-c3c(C(F)(F)F)c(C(F)(F)C(F)(F)F)nn3C)no2)ccc1Cl [Compound 86, 2-ch loro-N-(2-fluoroallyl)-5-[3-[2-methyl-5-(1,1,2,2,2-pentafluoroethyl)-4-(trifluoromethyl)pyrazol-3-yl]isoxazol-5-yl]benzamide]
≥ 80%: pest or weed control at 200 ppm [2] | mortality at 200 ppm [3] | mortality at 200 ppm [4] | pest or weed control at 200 ppm [6] | pest or weed control at 200 ppm [5]

C=C(C)CNC(=O)c1cc(-c2cc(-c3c(C(F)(F)F)c(C(F)(F)C(F)(F)F)nn3C)no2)ccc1Cl [Compound 98, 2-chloro-N-(2-methylallyl)-5-[3-[2-methyl-5-(1,1,2,2,2-pentafluoroethyl)-4-(trifluoromethyl)pyrazol-3-yl]isoxazol-5-yl]benzamide]
≥ 80%: pest or weed control at 200 ppm [2] | mortality at 200 ppm [3] | mortality at 200 ppm [4] | pest or weed control at 200 ppm [6] | pest or weed control at 200 ppm [5]

Cn1nc(C(F)(F)C(F)(F)F)c(C(F)(F)F)c1-c1cnn(-c2ccc(Cl)c(C(=O)NC3(C#N)CC3)c2)c1 [Compound 38, 2-chloro-N-(1-cyanocyclopropyl)-5-[4-[2-methyl-5-(1,1,2,2,2-pentafluoroethyl)-4-(trifluoromethyl)pyrazol-3-yl]pyrazol-1 - yl]benzamide]
≥ 80%: mortality at 12.5 ppm [7]

Cn1nc(C(F)(F)C(F)(F)F)c(C(F)(F)F)c1-c1cc(-c2ccc(Cl)c(C(=O)NC3(C#N)CC3)c2)ns1 [Compound 46, 2-chloro-N-(1-cyanocyclopropyl)-5-[5-[2-methyl-5-(1,1,2,2,2-pentafluoroethyl)-4-(trifluoromethyl)pyrazol-3-yl]isothiazol-3-yl]benzamide]
≥ 80%: mortality at 12.5 ppm [1] | mortality at 200 ppm [3]

Cn1nc(C(F)(F)C(F)(F)F)c(C(F)(F)F)c1-c1cc(-c2ccc(Cl)c(C(=O)Nc3ccncc3)c2)on1 [Compound 89, 2-chloro-5-[3-[2-methyl-5-(1,1,2,2,2-pentafluoroethyl)-4-(trifluoromethyl)pyrazol-3-yl]isoxazol-5-yl]-N-(4-pyridyl)benzamide]
≥ 80%: pest or weed control at 200 ppm [2] | mortality at 200 ppm [3] | mortality at 200 ppm [4] | pest or weed control at 200 ppm [6] | pest or weed control at 200 ppm [5]

Cn1nc(-c2c(C(F)(F)F)c(C(F)(F)C(F)(F)F)nn2C)cc1-c1ccc(Cl)c(C(=O)NC2CC2)c1 [Compound 41, 2-chloro-N-cyclopropyl-5-[2-methyl-5-[2-methyl-5-(1,1,2,2,2-pentafluoroethyl)-4-(trifluoromethyl)pyrazol-3-yl]pyrazol-3-yl]benzamide]
≥ 80%: pest or weed control at 200 ppm [2] | mortality at 200 ppm [3] | mortality at 200 ppm [4] | pest or weed control at 200 ppm [6] | pest or weed control at 200 ppm [5]

C#CCNC(=O)c1cc(-c2cc(-c3c(C(F)(F)F)c(C(F)(F)C(F)(F)F)nn3C)no2)ccc1Cl [Compound 79, 2-chloro-5-[3-[2-methyl-5-(1,1,2,2,2-pentafluoroethyl)-4-(trifluoromethyl)pyrazol-3-yl]isoxazol-5-yl]-N-prop-2-ynyl-benzamide]
≥ 80%: mortality at 12.5 ppm [1] | pest or weed control at 200 ppm [2] | mortality at 200 ppm [3] | mortality at 200 ppm [4] | pest or weed control at 200 ppm [6] | pest or weed control at 200 ppm [5]

CC(C)CNC(=O)c1cc(-c2cc(-c3c(C(F)(F)F)c(C(F)(F)C(F)(F)F)nn3C)no2)ccc1Cl [Compound 87, 2-chloro-N-isobutyl-5-[3-[2-methyl-5-(1,1,2,2,2-pentafluoroethyl)-4-(trifluoromethyl)pyrazol-3-yl]isoxazol-5-yl]benzamide]
≥ 80%: pest or weed control at 200 ppm [2] | mortality at 200 ppm [3] | mortality at 200 ppm [4] | pest or weed control at 200 ppm [6] | pest or weed control at 200 ppm [5]

Cn1nc(C(F)(F)C(F)(F)F)c(C(F)(F)F)c1-c1cc(-c2ccc(Cl)c(C(=O)NC3(c4ccccn4)CC3)c2)on1 [Compound 95, 2-chloro-5-[3-[2-methyl-5-(1,1,2,2,2-pentafluoroethyl)-4-(trifluoromethyl)pyrazol-3-yl]isoxazol-5-yl]-N-[1-(2-pyridyl)cyclopropyl]benzamide]
≥ 80%: mortality at 12.5 ppm [1] | pest or weed control at 200 ppm [2] | mortality at 200 ppm [3] | mortality at 200 ppm [4] | pest or weed control at 200 ppm [5]
